Here are results for 23 compounds from patent US7622494B2, “Chemical compounds” (SmithKline Beecham Corporation, priority 2003, dated 2009).

This experiment has as its system episomal HPV-16 DNA in W12-20850 cells. Nature of the experiment: W-12 cellular assay (hybrid capture quantification of episomal HPV-16 DNA). Type of experiment: cell-based, HPV16. Conditions: read-out: W-12. The procedure: Compounds of the current invention are believed useful in the treatment and/or prophylaxis of conditions and diseases associated with HPV infection. Activity mediated through HPV was determined using the following W-12 cellular assay.
The W12 cell line used contains HPV16 DNA and was derived from a low-grade cervical dysplasia tissue by Margaret Stanley and subsequently clonally selected by Paul Lambert (University of Wisconsin). One of these clones, W12-20850, contains 1000 copies of episomal HPV16 DNA and was used in the cell-based assay. W12-20850 cells were routinely cultured with a gamma-irradiated (6000 rads) feeder layer of 3T3 cells. Assays, however, were run in the absence of a 3T3 feeder layer. W12-20850 and 3T3 cells were routinely split when they were sub-confluent. W12-20850 were grown in W12 Medium which is constituted of 25% DMEM (Gibco BRL, Cat # 12430-047), 75% F12 Media (Gibco BRL, Cat # 11765-021) and 2.5% FBS. The additives include […] Adenine (Sigma, Cat # A-9795), […] Hydrocortisone (Calbiochem, Cat # 386698); 5.0 mg/ml Bovine Insulin (Sigma, Cat # I-1882), 8.4 ng/ml cholera toxin (Fluka, Cat # 26694) and 10 ng/ml EGF (Invitrogen, Cat # 13247-051). 3T3 cells were grown in DMEM containing 10% FBS. Cell lines were incubated at 37° C., in the presence of 5% CO2.
For the assay, W12-20850 cells were seeded into a 96 well plate-containing compound. Plates were incubated at 37° C. in the presence of 5% CO2, for four days. On the fourth day, cells were lysed and the amount of episomal. HPV-16 DNA was quantified using a non-radioactive hybrid capture technique with HPV-16 specific capture and detection probes. The percent inhibition relative to untreated control cells' was then determined.
The hybrid capture assay is run in a 96 well plate format. Hybridization plates (Nunc Maxisorb Cat # 450320) were coated with a mixture of capture probe and ReactiBind solution for at least 4 hours and then washed with 0.2×SSC, 0.05% Tween20 (SSCT) prior to blocking with […] of 0.2 N NaOH, 1% Igepal, 10 mg/ml hsDNA for 6-8 hours. The hybridization was carried out by mixing 27 μl of lysed cells with 45 μl of denatured detection probe in 6M guanidine isothiocyanate. To prevent evaporation, 50 μl of mineral oil was added to each well. The plate was then heated to 90° C. for 6.5 minutes and the hybridization continued at 42° C. overnight. Assay plates were washed 6 times with SSC/T. Anti-digoxigenin HRP-conjugated Ab (Boehringer Mannheim 1207733, 1:5000) was incubated in the wells for 30 min at room temperature and washed with PBS/0.05% Tween-20. SuperSignal LBA substrate (Pierce Cat # 37070) was added, and chemiluminescence was measured using Wallac 1420 Victor plate reader.

Where [1] appears, read: Human papillomavirus 16, W12-20850, 96 h.
[2] abbreviates: Human papillomavirus 16, 96 h, W12-20850 cells, four days incubation, episomal HPV-16 DNA by hybrid capture, inhibition relative to untreated control cells.

Counter-ions that a name gives are not always drawn. Like-named read-outs stand apart in the source and are kept apart here.

Consider `C[C@@H](NC1CCCc2c1[nH]c1ccc([N+](=O)[O-])cc21)c1ccccc1` (stereo partly drawn) [Example 49, 6-Nitro-N-[(1R)-1-phenylethyl]-2,3,4,9-tetrahydro-1H-carbazol-1-amine hydrochloride salt], for which, under setting [1], the IC50 turned out to be 83 nM.
With `Brc1ccc2[nH]c3c(c2c1)CCC3NCCc1ccccc1` (centres unmarked) [Example 50, 7-Bromo-N-(2-phenylethyl)-1,2,3,4-tetrahidrocyclopenta[b]indol-3-amine hydrochloride salt], the IC50 under setting [2] was found to be 11000 nM.
Turning to `C[C@@H](N[C@@H]1CCc2c1[nH]c1ccc(Br)cc21)c1ccccc1` [Example 51, (3R)-7-Bromo-N-[(1R)-1-phenylethyl]-1,2,3,4-tetrahydrocyclooenta[b]indol-3-amine hydrochloride salt], the IC50 under setting [2] worked out at 122 nM.
The same measure, in the same setting: the value for `C[C@@H](N[C@H]1CCc2c1[nH]c1ccc(Br)cc21)c1ccccc1` [Example 52, (3S)-7-Bromo-N-[(1R)-1-phenylethyl]-1,2,3,4-tetrahydrocyclobenta[b]indol-3-amine hydrochloride salt] was 29000 nM.
Take `COc1ccc2[nH]c3c(c2c1)CCCC3NCc1ccccc1` (centres unmarked) [Example 53, N-Benzyl-6-methoxy-2,3,4,9-tetrahydro-1H-carbazol-1-amine hydrochloride salt]: the IC50 under setting [1] was 7600 nM.
On the same count and under the same terms, the value for `Brc1ccc2[nH]c3c(c2c1)CCCCC3NCc1ccccc1` (centres unmarked) [Example 54, N-Benzyl-2-bromo-5,6,7,8,9,10-hexahydrocyclohepta[b]indol-6-amine hydrochloride] was 1100 nM.
Consider `C[C@@H](NC1CCCCc2c1[nH]c1ccc(Br)cc21)c1ccccc1` (stereo partly drawn) [Example 55, 2-Bromo-N-[(1R)-1-phenylethyl]-5,6,7,8,9,10-hexahydrocycloheota[b]indol-6-amine hydrochloride], for which the IC50 under setting [2] was found to be 1000 nM.
Consider `Brc1ccc2[nH]c3c(c2c1)CCCCC3NCCc1ccccc1` (centres unmarked) [Example 56, 2-Bromo-N-(2-phenylethyl)-5,6,7,8,9,10-hexahydrocycloheDta[b]indol-6-amine hydrochloride], for which, under setting [2], the IC50 amounted to 774 nM.
Consider `Fc1ccc(CNC2CCCc3c2[nH]c2ccc(Br)cc32)cc1` (centres unmarked) [Example 57, 6-Bromo-N-(4-fluorobenzyl)-2,3,4,9-tetrahydro-1H-carbazol-1-amine hydrochloride], for which, under setting [1], the IC50 was 139 nM.
Same read-out and setting: the value for `FC(F)(F)c1ccc2[nH]c3c(c2c1)CCCC3NCc1ccccc1` (centres unmarked) [Example 58, N-Benzyl-6-(trifluoromethyl)-2,3,4,9-tetrahydro-1H-carbazol-1-amine hydrochloride] was 1000 nM; that for `C[C@@H](NC1CCCc2c1[nH]c1ccc(C(F)(F)F)cc21)c1ccccc1` (stereo partly drawn) [Example 59, N-[(1R)-1-Phenylethyl]-6-(trifluoromethyl)-2,3,4,9-tetrahydro-1H-carbazol-1-amine hydrochloride] was 287 nM; that for `Brc1ccc2[nH]c3c(c2c1)CCCC3NC(c1ccccc1)c1ccccc1` (centres unmarked) [Example 60, N-Benzhydryl-6-bromo-2,3,4,9-tetrahydro-1H-carbazol-1-amine hydrochloride] was 14 nM.
On the same count and under the same terms, for `Brc1ccc2c3c([nH]c2c1)C(NCc1ccccc1)CCC3` (centres unmarked) [Example 61, N-Benzyl-7-bromo-2,3,4,9-tetrahydro-1H-carbazol-1-amine hydrochloride] the value was 11000 nM.
Same read-out and setting: for `C[C@@H](NC1CCCc2c1[nH]c1cc(Br)ccc21)c1ccccc1` (stereo partly drawn) [Example 62, 7-Bromo-N-[(1R)-1-phenylethyl]-2,3,4,9-tetrahydro-1H-carbazol-1-amine hydrochloride] the value was 8000 nM.
On to `Brc1ccc2c3c([nH]c2c1)C(NC1Cc2ccccc2C1)CCC3` (centres unmarked) [Example 63, 7-Bromo-N-(2.3-dihydro-1H-inden-2-yl)-2,3,4,9-tetrahydro-1H-carbazol-1-amine hydrochloride], for which, under setting [2], the IC50 amounted to 3900 nM.
Same read-out and setting: the value for `Brc1ccc2[nH]c3c(c2c1)CCCC3OCc1ccccc1` (centres unmarked) [Example 64, 6-Bromo-1-[(phenylmethyl)oxy]-2,3,4,9-tetrahydro-1H-carbazole] was 95 nM.
Still for that read-out and setting: the value for `CC(C)NC(=O)NC1CCCc2c1[nH]c1ccc(Br)cc21` (centres unmarked) [Example 65, N-(6-Bromo-2,3,4,9-tetrahydro-1H-carbazol-1-yl)-N′-isopropylurea] was 5000 nM; that for `COC(=O)NC1CCCc2c1[nH]c1ccc(Br)cc21` (centres unmarked) [Example 66, Methyl 6-bromo-2,3,4,9-tetrahydro-1H-carbazol-1-ylcarbamate] was 165 nM; that for `CC(=O)NC1CCCc2c1[nH]c1ccc(Br)cc21` (centres unmarked) [Example 67, N-(6-Bromo-2,3,4,9-tetrahydro-1H-carbazol-1-yl)acetamide] was 13000 nM.
Still for that read-out and setting: the value for `O=C(NC1CCCc2c1[nH]c1ccc(Br)cc21)C1CCCCC1` (centres unmarked) [Example 68, N-(6-Bromo-2,3,4,9-tetrahydro-1H-carbazol-1-yl)cyclohexanecarboxamide] was 380 nM.
For `CS(=O)(=O)NC1CCCc2c1[nH]c1ccc(Br)cc21` (centres unmarked) [Example 69, N-(6-Bromo-2,3,4,9-tetrahydro-1H-carbazol-1-yl)methanesulfonamide], the IC50 under setting [2] amounted to 2300 nM.
The same measure, in the same setting: the value for `NC(=O)NC1CCCc2c1[nH]c1ccc(Br)cc21` (centres unmarked) [Example 70, N-(6-Bromo-2,3,4,9-tetrahydro-1H-carbazol-1-yl)urea] was 10300 nM.
Turning to `Brc1cccc2c3c([nH]c12)C(NCc1ccccc1)CCC3` (centres unmarked) [Example 71, N-Benzyl-8-bromo-2,3,4,9-tetrahydro-1H-carbazol-1-amine hydrochloride], the IC50 under setting [1] was 11400 nM.
